Reference: US11753407B2, “Compounds for treating spinal muscular atrophy” (PTC Therapeutics, Inc., priority 2012, dated 2023)

Legend:
[1] = test system: SMN2 minigene mRNA (SMN2-A minigene) in HEK293H cells; experiment: SMN2 minigene mRNA splicing RT-qPCR assay in cultured cells; format: cell-based, human; conditions: Homo sapiens, HEK293-H; concentration increasing full length SMN2 mRNA 1.5-fold relative to vehicle-treated cells; HEK293H cells with SMN2-A minigene, 24 hours, 7-point concentration data; read-out: EC1.5x for production of full length SMN2 mRNA
Outline: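 HEK293H cells stably carrying the SMN2-A minigene were treated for 24 h at 37 °C with a 7-point, 3.16-fold dilution series of compound. Multiplex RT-qPCR measured exon 7-containing minigene FL mRNA against GAPDH, expressed relative to vehicle by modified ΔΔCt; the EC1.5× is the concentration giving a 1.5-fold increase.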

[2] = test system: Smn protein in SMA patient fibroblast cells (GM03813); experiment: Smn protein assay in cultured cells (SMN HTRF); format: cell-based, human; conditions: SMA patient fibroblast cells, 48 hours; for EC1.5x for Smn protein expression: 7-point concentration curve, SMN HTRF, concentration producing 1.5 times Smn protein vs DMSO vehicle control; for maximum fold (Fold) increase of Smn protein: 7-point concentration data, fold relative to vehicle control
Outline: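 SMA patient fibroblasts (5,000 cells/well, DMEM-10% FBS) were treated for 48 h at 37 °C with a 7-point, 3.16-fold dilution series in triplicate. RIPA lysates were probed by HTRF (anti-SMN d2/kryptate, overnight, room temperature), reading 665/620 nm. EC1.5× is the concentration giving 1.5-fold Smn over DMSO vehicle.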

Structure (SMILES)	EC (1.5-fold increase) [1]	EC1.5x for Smn protein expression [2]	maximum fold (Fold) increase of Smn protein [2]	melting point
Cc1cn(-c2cc(=O)n3cc(N4CCNCC4)ccc3n2)cn1 [Cpd 179, 2-(4-methyl-1H-imidazol-1-yl)-7-(piperazin-1-yl)-4H-pyrido[1,2-a]pyrimidin-4-one]	0.3 to 1 µM	*** (an EC1.5× between >0.3 μM and ≤1 μM is indicated by three stars (***))	***** (a fold increase >1.65 is indicated by five stars (*****))	204 to 206 °C
COc1ncc(-c2cc(=O)n3cc(N4CCNCC4)ccc3n2)cc1F [Cpd 182, 2-(5-fluoro-6-methoxypyridin-3-yl)-7-(piperazin-1-yl)-4H-pyrido[1,2-a]pyrimidin-4-one]	0.3 to 1 µM	*** (an EC1.5× between >0.3 μM and ≤1 μM is indicated by three stars (***))	**** (a fold increase between >1.5 and ≤1.65 is indicated by four stars (****))	166 to 170 °C
COc1ccc(-c2cc(=O)n3cc(C4=CCN(C)CC4)ccc3n2)cc1OC [Cpd 188, 2-(3,4-dimethoxyphenyl)-7-(1-methyl-1,2,3,6-tetrahydropyridin-4-yl)-4H-pyrido[1,2-a]pyrimidin-4-one]	0.1 to 0.3 µM	*** (an EC1.5× between >0.3 μM and ≤1 μM is indicated by three stars (***))	***** (a fold increase >1.65 is indicated by five stars (*****))	165 to 168 °C
C[C@H]1CN(c2ccc3nc(-c4cnn(C)c4)cc(=O)n3c2)CCN1 [Cpd 191, 7-[(3S)-3-methylpiperazin-1-yl]-2-(1-methyl-1H-pyrazol-4-yl)-4H-pyrido[1,2-a]pyrimidin-4-one]	1 to 3 µM	** (an EC1.5× between >1 μM and ≤3 μM is indicated by two stars (**))	**** (a fold increase between >1.5 and ≤1.65 is indicated by four stars (****))	168 to 170 °C
Cc1cn2cc(-c3cc(=O)n4cc(N5CCNCC5)ccc4n3)cc(F)c2n1 [Cpd 209, 2-(8-fluoro-2-methylimidazo[1,2-a]pyridin-6-yl)-7-(piperazin-1-yl)-4H-pyrido[1,2-a]pyrimidin-4-one]	< 0.1 µM	**** (an EC1.5x≤0.3 μM is indicated by four stars (****))	**** (a fold increase between >1.5 and ≤1.65 is indicated by four stars (****))	282 to 288 °C
COc1ccc(-c2ccc3nc(N4CCNCC4)cc(=O)n3c2)cc1F [Cpd 220, 7-(3-fluoro-4-methoxyphenyl)-2-(piperazin-1-yl)-4H-pyrido[1,2-a]pyrimidin-4-one]	0.3 to 1 µM	–	** (a fold increase between >1.2 and ≤1.35 is indicated by two stars (**))	202 to 206 °C
COc1ccc(-c2cc(=O)n3cc(OC4CCNCC4)ccc3n2)cc1OC [Cpd 237, 2-(3,4-dimethoxyphenyl)-7-(piperidin-4-yloxy)-4H-pyrido[1,2-a]pyrimidin-4-one]	1 to 3 µM	–	*** (a fold increase between >1.35 and ≤1.5 is indicated by three stars (***))	221 to 224 °C
COc1ccc(-c2cc(=O)n3cc(N(C)[C@@H]4CCN(C)C4)ccc3n2)cc1F [Cpd 239, 2-(3-fluoro-4-methoxyphenyl)-7-{methyl[(3R)-1-methylpyrrolidin-3-yl]amino}-4H-pyrido[1,2-a]pyrimidin-4-one]	1 to 3 µM	–	* (A maximum fold increase of ≤1.2 is indicated by one star (*))	143 to 149 °C
COc1ccc(-c2cc(=O)n3cc(C4=CCNCC4)ccc3c2)cc1OC [Cpd 245, 2-(3,4-dimethoxyphenyl)-7-(1,2,3,6-tetrahydropyridin-4-yl)-4H-quinolizin-4-one]	0.3 to 1 µM	–	** (a fold increase between >1.2 and ≤1.35 is indicated by two stars (**))	174 to 176 °C
COc1ccc(-c2cc(=O)n3cc(C4=CCN(C)CC4)ccc3c2)cc1OC [Cpd 249, 2-(3,4-dimethoxyphenyl)-7-(1-methyl-1,2,3,6-tetrahydropyridin-4-yl)-4H-quinolizin-4-one]	0.3 to 1 µM	–	* (A maximum fold increase of ≤1.2 is indicated by one star (*))	194 to 196 °C
COc1ccc(-c2cc(=O)n3cc(C4=CCCNC4)ccc3n2)cc1OC [Cpd 263, 2-(3,4-dimethoxyphenyl)-7-(1,2,5,6-tetrahydropyridin-3-yl)-4H-pyrido[1,2-a]pyrimidin-4-one]	0.3 to 1 µM	*** (an EC1.5× between >0.3 μM and ≤1 μM is indicated by three stars (***))	**** (a fold increase between >1.5 and ≤1.65 is indicated by four stars (****))	146 to 150 °C
COc1ccc(-c2ccc3nc(N4CCC(N)CC4)cc(=O)n3c2)cc1F [Cpd 276, 2-(4-aminopiperidin-1-yl)-7-(3-fluoro-4-methoxyphenyl)-4H-pyrido[1,2-a]pyrimidin-4-one]	0.3 to 1 µM	–	* (A maximum fold increase of ≤1.2 is indicated by one star (*))	268 to 283 °C
COc1ccc(-c2ccc3nc(C4=CCNCC4)cc(=O)n3c2)cc1F [Cpd 294, 7-(3-fluoro-4-methoxyphenyl)-2-(1,2,3,6-tetrahydropyridin-4-yl)-4H-pyrido[1,2-a]pyrimidin-4-one]	< 0.1 µM	* (An EC1.5× for Smn protein expression between >3 μM and ≤10 μM is indicated by one star (*))	*** (a fold increase between >1.35 and ≤1.5 is indicated by three stars (***))	188 to 192 °C
Cc1nc2c(F)cc(-c3cc(=O)n4cc(N5CCN[C@@H](C)C5)ccc4n3)cc2o1 [Cpd 306, 2-(4-fluoro-2-methyl-1,3-benzoxazol-6-yl)-7-[(3S)-3-methylpiperazin-1-yl]-4H-pyrido[1,2-a]pyrimidin-4-one]	< 0.1 µM	**** (an EC1.5x≤0.3 μM is indicated by four stars (****))	***** (a fold increase >1.65 is indicated by five stars (*****))	207 to 209 °C
Cc1nc2ccc(-c3cc(=O)n4cc(N5CCN[C@@H](C)C5)ccc4c3)cc2o1 [Cpd 322, 2-(2-methyl-1,3-benzoxazol-6-yl)-7-[(3S)-3-methylpiperazin-1-yl]-4H-quinolizin-4-one]	< 0.1 µM	*** (an EC1.5× between >0.3 μM and ≤1 μM is indicated by three stars (***))	**** (a fold increase between >1.5 and ≤1.65 is indicated by four stars (****))	115 to 117 °C
Cc1cn2nc(-c3cc(=O)n4cc(C5=CCNCC5)ccc4n3)cc2c(C)n1 [Cpd 342, 2-(4,6-dimethylpyrazolo[1,5-a]pyrazin-2-yl)-7-(1,2,3,6-tetrahydropyridin-4-yl)-4H-pyrido[1,2-a]pyrimidin-4-one]	< 0.1 µM	**** (an EC1.5x≤0.3 μM is indicated by four stars (****))	***** (a fold increase >1.65 is indicated by five stars (*****))	207 to 210 °C
Cc1nc2ccc(-c3cc(=O)n4nc(C5CCNCC5)ccc4n3)cc2s1.O=C(O)C(F)(F)F [Cpd 380, 2-(2-methyl-1,3-benzothiazol-6-yl)-7-(piperidin-4-yl)-4H-pyrimido[1,2-b]pyridazin-4-one trifluoroacetate (1:1)]	0.1 to 0.3 µM	*** (an EC1.5× between >0.3 μM and ≤1 μM is indicated by three stars (***))	**** (a fold increase between >1.5 and ≤1.65 is indicated by four stars (****))	230 to 235 °C
COc1ccc(-c2cc(=O)n3nc(C4=CCNCC4)ccc3n2)cc1OC [Cpd 398, 2-(3,4-dimethoxyphenyl)-7-(1,2,3,6-tetrahydropyridin-4-yl)-4H-pyrimido[1,2-b]pyridazin-4-one]	0.3 to 1 µM	** (an EC1.5× between >1 μM and ≤3 μM is indicated by two stars (**))	***** (a fold increase >1.65 is indicated by five stars (*****))	195 to 200 °C
COc1ccc(-c2cc(=O)n3cc(C4=CCNCC4)ncc3n2)cc1OC [Cpd 402, 2-(3,4-dimethoxyphenyl)-7-(1,2,3,6-tetrahydropyridin-4-yl)-4H-pyrazino[1,2-a]pyrimidin-4-one]	< 0.1 µM	** (an EC1.5× between >1 μM and ≤3 μM is indicated by two stars (**))	**** (a fold increase between >1.5 and ≤1.65 is indicated by four stars (****))	205 to 208 °C
CCCNC1CCN(c2cc(C)c3nc(-c4ccc(OC)c(OC)c4)cc(=O)n3c2)CC1 [Cpd 407, 2-(3,4-dimethoxyphenyl)-9-methyl-7-[4-(propylamino)piperidin-1-yl]-4H-pyrido[1,2-a]pyrimidin-4-one]	< 0.1 µM	–	*** (a fold increase between >1.35 and ≤1.5 is indicated by three stars (***))	178 to 184 °C
